Measurements taken from the CheMixHub viscosity set.
“And” between values parts separate entries of the source, which are not always exact repeats. Equal values may be shown once.

Experiment: xn = mol fraction of the nth substance listed

CC(=O)N1CCOCC1 + CCC(C)O
viscosity [mPa·s], 101 kPa
Conditions | 293.15 K | 303.15 K | 313.15 K | 323.15 K
x1 = 0.0516 | 5.054 | 4.116 | 3.093 | 2.101
x1 = 0.1322 | 6.732 | 5.737 | 4.626 | 3.598
x1 = 0.2217 | 8.167 | 7.11 | 5.901 | 4.833
x1 = 0.2879 | 8.981 | 7.878 | 6.596 | 5.499
x1 = 0.3188 | 9.257 | 8.132 | 6.816 | 5.706
x1 = 0.3996 | 9.785 | 8.603 | 7.199 | 6.052
x1 = 0.4597 | 10.02 | 8.8 | 7.33 | 6.157
x1 = 0.5084 | – | – | 7.42 | –
x1 = 0.5094 | 10.2 | 8.944 | – | 6.225
x1 = 0.5496 | 10.27 | 8.985 | 7.418 | 6.204
x1 = 0.6127 | 10.29 | 8.96 | 7.323 | 6.082
x1 = 0.6444 | 10.11 | 8.757 | 7.086 | 5.83
x1 = 0.6915 | 10.11 | 8.728 | 7.005 | 5.728
x1 = 0.7516 | 9.956 | 8.527 | 6.739 | 5.436
x1 = 0.7984 | 9.588 | 8.127 | 6.288 | 4.964
x1 = 0.8599 | 9.409 | 7.905 | 5.998 | 4.647
x1 = 0.9127 | 8.959 | 7.419 | 5.454 | 4.079
x2 = 0.0157 | 8.843 | 7.252 | 5.209 | 3.918

CCCCCC[n+]1ccn(C)c1.O=[N+]([O-])[O-] + CCC(C)O
Conditions | viscosity [mPa·s]
298.15 K, 100 kPa, x1 = 0.7392 | 237.5

Cc1cccc2ccccc12 + CCCCCCC
viscosity [mPa·s], 100 kPa
Conditions | x2 = 0.125 | x2 = 0.25 | x2 = 0.375 | x2 = 0.5 | x2 = 0.625 | x2 = 0.75 | x2 = 0.875
303.15 K | 1.84 | 1.36 | 1.03 | 0.8 | 0.644 | 0.524 | 0.438
323.15 K | 1.3 | 1 | 0.781 | 0.625 | 0.512 | 0.424 | 0.357

CCC1CCCCC1 + CCCCCCCC(=O)OCC
viscosity [mPa·s], 100 kPa
Conditions | x1 = 0.1001 | x1 = 0.2 | x1 = 0.3 | x1 = 0.3998 | x1 = 0.5 | x1 = 0.5997 | x1 = 0.7 | x1 = 0.8001 | x1 = 0.9
293.15 K | 1.446 | 1.359 | 1.278 | 1.201 | 1.128 | 1.058 | 0.992 | 0.929 | 0.877
298.15 K | 1.328 | 1.254 | 1.182 | 1.113 | 1.046 | 0.983 | 0.924 | 0.869 | 0.821
303.15 K | 1.224 | 1.156 | 1.09 | 1.03 | 0.971 | 0.916 | 0.862 | 0.812 | 0.768
308.15 K | 1.132 | 1.071 | 1.012 | 0.957 | 0.903 | 0.854 | 0.808 | 0.762 | 0.72
313.15 K | 1.039 | 0.985 | 0.932 | 0.882 | 0.835 | 0.792 | 0.749 | 0.709 | 0.674
318.15 K | 0.977 | 0.927 | 0.879 | 0.833 | 0.79 | 0.748 | 0.71 | 0.672 | 0.64
323.15 K | 0.902 | 0.856 | 0.812 | 0.771 | 0.733 | 0.696 | 0.661 | 0.625 | 0.595

CCC1CCCCC1 + CCCCCCCCCC(=O)OCC
viscosity [mPa·s], 100 kPa
Conditions | x1 = 0.1001 | x1 = 0.1999 | x1 = 0.3001 | x1 = 0.4 | x1 = 0.5002 | x1 = 0.5998 | x1 = 0.7 | x1 = 0.8 | x1 = 0.9001
293.15 K | 2.153 | 1.979 | 1.807 | 1.642 | 1.487 | 1.342 | 1.204 | 1.079 | 0.96
298.15 K | 1.963 | 1.807 | 1.655 | 1.51 | 1.373 | 1.242 | 1.12 | 1.007 | 0.9
303.15 K | 1.778 | 1.642 | 1.51 | 1.382 | 1.261 | 1.146 | 1.038 | 0.936 | 0.84
308.15 K | 1.626 | 1.503 | 1.384 | 1.271 | 1.165 | 1.063 | 0.966 | 0.873 | 0.786
313.15 K | 1.494 | 1.385 | 1.276 | 1.174 | 1.078 | 0.987 | 0.9 | 0.815 | 0.734
318.15 K | 1.377 | 1.279 | 1.185 | 1.095 | 1.01 | 0.928 | 0.846 | 0.767 | 0.692
323.15 K | 1.27 | 1.184 | 1.102 | 1.021 | 0.943 | 0.867 | 0.793 | 0.722 | 0.652

Cc1cccc2ccccc12 + CCCCCCCCCCCC
323.15 K, 100 kPa
Conditions | viscosity
x1 = 0.382 | 1.01 mPa·s and 1.02 mPa·s
x1 = 0.699 | 1.22 mPa·s

CCCCCCCCCO + CCCCCCCCCCO
Conditions | viscosity [mPa·s]
293.15 K, 101.33 kPa, x1 = 0.1193 | 14.2
293.15 K, 101.33 kPa, x1 = 0.3048 | 13.76
293.15 K, 101.33 kPa, x1 = 0.5886 | 12.82
293.15 K, 101.33 kPa, x1 = 0.8745 | 12.02
298.15 K, 101.33 kPa, x1 = 0.2583 | 11.34
298.15 K, 101.33 kPa, x1 = 0.6152 | 10.53
298.15 K, 101.33 kPa, x1 = 0.869 | 9.852
298.15 K, 101.8 kPa, x1 = 0.9074 | 9.726
308.15 K, 101.8 kPa, x1 = 0.1082 | 7.899
308.15 K, 101.8 kPa, x1 = 0.3202 | 7.632
308.15 K, 101.8 kPa, x1 = 0.7188 | 7.125
308.15 K, 101.8 kPa, x1 = 0.9074 | 6.876
318.15 K, 101.8 kPa, x1 = 0.1082 | 5.649
318.15 K, 101.8 kPa, x1 = 0.3202 | 5.463
318.15 K, 101.8 kPa, x1 = 0.5233 | 5.336
318.15 K, 101.8 kPa, x1 = 0.7188 | 5.124
318.15 K, 101.8 kPa, x1 = 0.9074 | 4.953
